# According to patent US12559471B2, “1,5-dihydro-2,4-benzodiazepine-3-one derivative and application thereof” (JIANGSU NHWA PHARMACEUTICAL CO., LTD, priority 2020, dated 2026):
# Several values for one entry are separate records, joined by “and”; a condition that tells them apart may be missing. Equal entries are not always repeated.
# How the values were obtained:
# [1] = target: 5-HT2A receptor (Homo sapiens (Human), UniProt P28223); test: Competitive 5-HT2A receptor binding assay (3H-Ketanserin, CHO-5-HT2A membrane)
# Protocol: 1) Preparation of CHO-5-HT2A Receptor Membrane
# The precipitate was collected, and the supernatant was discarded. The solution B was added into the precipitate. […] The supernatant was carefully discarded, and the solution B was added into the precipitate again. […] The precipitate obtained was stored at −80° C.
# 1) Competitive 5-HT2A Receptor Binding Assay
# Step 2: 100 μL of the membrane preparation was added into each reaction tube.
# After the filtration, the filter membrane was dried at 60° C. and added into a scintillation disc attached with a bottom membrane, which was then added with 40 μL of scintillation liquid, sealed with a top membrane, and left to stand.
# [2] = target: hERG potassium channel (Homo sapiens (Human), UniProt Q12809); test: In vitro hERG assay, whole-cell patch clamp in HEK-293 cells; type: cell-based; conditions: HEK-293 cells stably expressing hERG, room temperature
# Protocol: b. […] The working solutions of the test compounds were ultrasonically treated for 20 min.
# The cell suspension was gently pipetted to separate the aggregated cells.
# Under an inverted microscope, recording electrodes were controlled by a glass electrode micromanipulator (micromanipulation) to contact with the cell. […] After forming the GΩ seal, a rapid capacitance compensation was given.
# Negative control and test compounds flowed through the recording chamber in an ascending order of concentration by gravity perfusion to quickly act on the cells. During the recording, the extracellular fluid was continuously circulated by a vacuum pump. […] Each concentration was allowed to act for 5 min or until the current was stabilized. All experiments were performed at room temperature.
# [formula] Basic statistics were calculated for each concentration, including mean, standard deviation (SD), standard error (SE), and replicates (n). The dose-dependent curve was fitted with the following equation and the half maximal inhibitory concentration (IC50) of the test compounds was calculated:
# Curve fitting and calculation of IC50 were performed by GraphPad Prism 5.0 software. 5. Experimental Results
# [3] = Investigation of sedation side effects (autonomic activity, movement distance); type: in vivo, mice; conditions: mouse, in vivo, ip; C57BL/6j mice, intraperitoneal, 45 min after administration
# Protocol: (§1) 1.3 Investigation of Sedation Side Effects (Anti-Sedation Model)
# (§2) According to different doses of each group, solutions at different concentrations were separately formulated for intraperitoneal injection, with the final administration volume of 10 mL/kg.
# (§3) The movement at 0-20 min was recorded on video, and the movement distance in 20 min was analyzed by Top Scan 3.00 software. The inhibition rate of each group relative to the blank group after the administration were calculated, and the sedation effects of the compounds were comprehensively evaluated in combination with a statistical conclusion.
# [4] = test system: C57BL/6j mice; test: as above; type: in vivo; conditions: sedation ED50 / PDP efficacy ED50
# Protocol: as §1, §2, §3
# [5] = test system: MK-801-induced high activity behavior of mice; test: Dizocilpine (MK-801)-induced high activity test in mice; type: in vivo; conditions: Mus musculus, 1 h, intragastric, MK-801 0.3 mg/kg i.p., 60 min, read-out: ED50 for inhibiting the MK-801-induced high activity behavior
# Protocol: 2. Dizocilpine (MK-801)-Induced High Activity Test in Mice 2.1 Test Method
# Mice were stratified according to body weight and then randomly divided into a model control group, a blank control group and drug administration groups. After the administration of a test substance (or a control substance), the mice were placed into an autonomous activity test box (a black polyethylene box with the specification of 29 cm×29 cm×30 cm) for adaptation, and injected with MK-801 at 0.3 mg/kg intraperitoneally 1 h after the intragastric administration. The mice were then placed into the autonomous activity test box for video recording for 60 min. Video analysis was performed after the video recording to evaluate the activity of the mice.
# [6] = test system: DOI-induced PPI impairment in rats; test: DOI-induced PPI impairment test in rats (intervention test); type: in vivo; conditions: DOI 0.5 mg/kg
# Protocol: 3. DOI ((f)-1-(2,5-dimethoxy-4-iodophenyl)-2-aminopropane hydrochloride or (f)-2,5-dimethoxy-4-iodoamphetamine hydrochloride) induced PPI impairment effect test in rats
# 30 min after the intragastric administration of a drug (or a vehicle) and 30 min after the subcutaneous injection of DOI at 0.5 mg/kg at the neck, namely 60 min after the intragastric administration, the rats were placed into a startle reflex test box for testing.
# (§4) The test was performed according to literature and preliminary experiments, and the specific process was as follows: first an adaptation period of 5 min was given (62 dB background sound), and 5 separate startle reflex stimuli were given after the adaptation period (blockl, results not included in the analysis to reduce the initial response of the animals to a plateau level), followed by 4 different types of tests (block2) presented in a pseudo-random manner, namely: 1) startle reflex stimulus alone (pulse-alone, 120 dB, lasting 20 ms); 2) prepulse stimulus alone 13 dB above the background sound (prepulse-alone, 75 dB, lasting 20 ms); 3) prepulse stimulus in combination with startle reflex stimulus, each lasting 20 ms, with an interval of 100 ms; and 4) no stimulus in which only the background sound was given (no stimulus). Each trial was performed 5 times, with an average interval of 20 s (10-30 s) between trials.
# (§5) The response amplitude of the startle reflex stimulus alone or the prepulse stimulus in combination with startle reflex stimulus was expressed as the AVG (instrument-specific unit) value, which indirectly reflects the size of the flinching response of the rat body. Evaluation index: PPI %=(1−response amplitude of prepulse stimulus in combination with startle reflex stimulus/response amplitude of startle reflex stimulus alone)×100. The higher the value is, the greater the degree of the inhibition is.
# [7] = test system: PPI in normal rats; test: PPI in normal rats (dosing test, normal saline instead of DOI); type: in vivo; conditions: for PPI %, MEAN / PPI %, individual animal: normal saline
# Protocol: as §4
# as §5, with “is. Dosing Test:” for “is.”
# The DOI at 0.5 mg/kg administered to animals in the above groups was changed to normal saline (NS), and other operations including administration and testing were the same as those in the intervention test.
# [8] = target: 5-HT2C receptor (Rattus norvegicus (Rat), UniProt P08909); conditions: read-out: 5-HT2C (Ki value); rat cortex membrane, 3H-Mesulergine
# 5-HT2C receptor, sequence (P08909 33-460): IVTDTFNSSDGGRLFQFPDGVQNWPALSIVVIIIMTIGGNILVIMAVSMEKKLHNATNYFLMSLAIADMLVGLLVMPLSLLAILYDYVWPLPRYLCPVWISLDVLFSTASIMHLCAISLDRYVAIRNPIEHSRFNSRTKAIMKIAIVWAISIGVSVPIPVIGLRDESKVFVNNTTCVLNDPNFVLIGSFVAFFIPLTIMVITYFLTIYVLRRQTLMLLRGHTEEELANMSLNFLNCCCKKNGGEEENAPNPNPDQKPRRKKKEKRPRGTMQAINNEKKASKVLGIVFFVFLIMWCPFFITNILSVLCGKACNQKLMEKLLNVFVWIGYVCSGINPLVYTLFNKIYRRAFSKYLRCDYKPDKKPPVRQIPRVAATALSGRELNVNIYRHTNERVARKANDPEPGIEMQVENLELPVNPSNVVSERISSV
# Protocol: 2) Preparation of 5-HT2C Membrane
# The rat cortex was taken out of a refrigerator at −80° C. and thawed spontaneously. The solution A was added, and the mixture was homogenized for 3-4 s at 4th gear for a total of 4 times and centrifuged at 50000 g for 25 min at 4° C. The supernatant was discarded, and the solution A was added into the precipitate. The mixture was mixed well using a vortex mixer and centrifuged at 50000 g for 25 min at 4° C. (repeated twice). The supernatant was discarded after the centrifugation, and the precipitate was stored at −80° C. for later use.
# 2) Competitive 5-HT2C Receptor Binding Assay
# Step 1: the prepared membrane was suspended in the homogenate B to obtain a 210 mg/mL membrane suspension for later use.
# Step 2: 100 μL of the membrane suspension was added into each reaction tube.
# Step 3: 100 μL of the solution B was added into a total binding tube (TB), 100 μL of Ketanserin (final concentration: 1.0×10^−5 M) was added into a non-specific binding tube (NB), and 100 μL of test compound was added into each compound binding tube (CB).
# Step 4: 10 μL of radioligand ^3H-Mesulergine was added into each reaction tube to reach a final concentration of 3 nM.
# Step 5: each reaction tube was incubated at 37° C. for 25 min. After the reaction was completed, the binding ligands were rapidly filtered under reduced pressure, wherein the Whatman test paper GF/C was washed with 0.5% PEI solution 1 h in advance. The filter membrane was fully washed with cold Tris buffer solution, taken out and put into a 4 mL scintillation disc, which was then added with 1 mL toluene scintillation solution and shaken for mixing well.
# Step 6: the scintillation disc was put into a liquid scintillation counter for counting.
# 5-HT2A receptor, sequence (P28223 whole entry): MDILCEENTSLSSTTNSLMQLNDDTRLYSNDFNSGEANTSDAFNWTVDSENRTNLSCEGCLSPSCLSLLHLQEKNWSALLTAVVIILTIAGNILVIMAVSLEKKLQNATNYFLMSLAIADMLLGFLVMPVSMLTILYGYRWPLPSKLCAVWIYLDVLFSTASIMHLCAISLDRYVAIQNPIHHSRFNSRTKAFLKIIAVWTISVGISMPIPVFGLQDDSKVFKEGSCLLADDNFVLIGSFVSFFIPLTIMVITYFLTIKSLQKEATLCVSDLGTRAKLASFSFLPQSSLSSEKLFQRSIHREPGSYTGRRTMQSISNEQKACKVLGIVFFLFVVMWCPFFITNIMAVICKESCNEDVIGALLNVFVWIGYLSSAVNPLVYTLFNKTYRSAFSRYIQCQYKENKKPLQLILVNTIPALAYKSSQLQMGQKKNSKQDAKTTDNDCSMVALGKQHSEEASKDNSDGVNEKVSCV
# hERG potassium channel, sequence (Q12809 whole entry): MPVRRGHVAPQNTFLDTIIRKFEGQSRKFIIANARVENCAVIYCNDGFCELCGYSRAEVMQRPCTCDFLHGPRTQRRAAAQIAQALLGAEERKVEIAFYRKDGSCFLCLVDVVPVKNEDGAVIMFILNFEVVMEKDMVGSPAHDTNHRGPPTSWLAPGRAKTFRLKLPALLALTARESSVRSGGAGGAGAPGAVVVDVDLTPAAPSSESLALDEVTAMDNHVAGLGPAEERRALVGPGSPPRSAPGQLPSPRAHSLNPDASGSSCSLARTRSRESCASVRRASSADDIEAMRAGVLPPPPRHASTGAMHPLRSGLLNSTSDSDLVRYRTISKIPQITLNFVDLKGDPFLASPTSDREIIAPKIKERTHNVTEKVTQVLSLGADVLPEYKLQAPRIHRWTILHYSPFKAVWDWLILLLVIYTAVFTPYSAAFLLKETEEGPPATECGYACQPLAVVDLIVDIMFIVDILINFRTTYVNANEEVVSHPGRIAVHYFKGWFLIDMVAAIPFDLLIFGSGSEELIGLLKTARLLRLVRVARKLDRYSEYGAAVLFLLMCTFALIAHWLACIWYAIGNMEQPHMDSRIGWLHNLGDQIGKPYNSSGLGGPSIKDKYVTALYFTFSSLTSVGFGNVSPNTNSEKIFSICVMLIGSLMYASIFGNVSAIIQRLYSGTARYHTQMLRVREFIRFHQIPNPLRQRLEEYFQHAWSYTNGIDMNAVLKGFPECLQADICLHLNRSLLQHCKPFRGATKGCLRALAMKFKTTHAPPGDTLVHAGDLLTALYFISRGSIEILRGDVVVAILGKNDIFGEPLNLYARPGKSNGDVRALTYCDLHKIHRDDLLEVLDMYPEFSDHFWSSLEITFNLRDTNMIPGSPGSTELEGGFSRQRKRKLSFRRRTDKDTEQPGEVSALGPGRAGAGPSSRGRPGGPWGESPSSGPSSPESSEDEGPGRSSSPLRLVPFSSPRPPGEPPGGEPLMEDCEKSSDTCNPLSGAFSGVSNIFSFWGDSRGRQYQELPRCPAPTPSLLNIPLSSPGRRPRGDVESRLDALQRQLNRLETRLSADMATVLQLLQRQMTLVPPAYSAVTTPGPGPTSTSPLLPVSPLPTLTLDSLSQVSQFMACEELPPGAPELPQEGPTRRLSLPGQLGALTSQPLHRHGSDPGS
smiles,measurement,setting,value
"CC(C)COc1ccc(CN2Cc3ccc(F)cc3CN(C3CCN(C)CC3)C2=O)cc1 [NH-K-A19005, 8-fluoro-2-(1-methylpiperidin-4-yl)-4-[[4-(2-methylpropoxy)phenyl]methyl]-1,5-dihydro-2,4-benzo diazepine-3-one]",Ki,"[1]; CHO-5-HT2A membrane, 3H-Ketanserin, read-out: 5-HT2A (Ki value)",0.429 nM
same,2C/2A,[1]; ratio of 5-HT2C Ki to 5-HT2A Ki,7.907
same,IC50,[2],3170 nM
same,ED50 at 45 min,[3],20 mg/kg
same,Ratio of sedation ED50 to PDP efficacy ED50,[4],10.8
same,ED50,[5],1.01 mg/kg
same,reversal of DOI-induced PPI impairment,"[6]; 3 mg/kg, P<0.05",significantly reverse
same,"PPI %, MEAN",[6]; 1 mg/kg intragastric,40.15%
same,"PPI %, individual animal",[6]; 1 mg/kg intragastric,55.27% and 13.13% and 49.29% and 40.22% and 11.24% and 71.74%
same,"PPI %, MEAN",[6]; 3 mg/kg intragastric,42.95%
same,"PPI %, individual animal",[6]; 3 mg/kg intragastric,36.23% and 53.57% and 36.93% and 47.37% and 45.54% and 61.94% and 38.90% and 23.16%
same,"PPI %, MEAN",[6]; 10 mg/kg intragastric,52.40%
same,"PPI %, individual animal",[6]; 10 mg/kg intragastric,86.67% and 28.57% and 78.84% and 65.78% and 63.08% and 0.38% and 52.03% and 43.86%
same,effect on PPI in normal rats,[7]; 3 mg/kg,no significant effects were seen
same,"PPI %, MEAN",[7]; 1 mg/kg intragastric,56.40%
same,"PPI %, individual animal",[7]; 1 mg/kg intragastric,80.68% and 15.47% and 49.79% and 52.82% and 71.15% and 68.46%
same,"PPI %, MEAN",[7]; 3 mg/kg intragastric,57.04%
same,"PPI %, individual animal",[7]; 3 mg/kg intragastric,59.36% and 82.61% and 79.48% and 48.75% and 42.42% and 38.56% and 48.95% and 56.22%
same,"PPI %, MEAN",[7]; 10 mg/kg intragastric,73.61%
same,"PPI %, individual animal",[7]; 10 mg/kg intragastric,55.11% and 96.41% and 53.03% and 84.89% and 84.43% and 72.39% and 61.37% and 81.26%
same,Ki,[8],3.39 nM
